Assay results: ChEMBL document CHEMBL1124642 (1989)
Activity calls are given as the source filed them. No cut-off for these calls is given here.

Assays:
[1] = species on record: Cavia porcellus; assay: Effective dose for guinea pig ileum contractions; assay type: functional; conditions: for EC50: read-out: ED50 (the source's name)
[2] = target: Muscarinic acetylcholine receptor (Homo sapiens) (UniProt P20309+P08173+P11229+P08172+P08912); assay: Tested in vitro for agonistic effect on Muscarinic acetylcholine receptor of guinea pig ileum; IA = Inactive; assay type: functional, tissue-based; conditions: Cavia porcellus, target entry is the homologue from another species

## CCN1C(=O)OCC1Cc1cncn1C (stereo not given)
[1]
  EC50: 1 µM

## CCN1C(=O)OCC1Cc1cn(Cc2ccccc2)c[n+]1C (stereo not given)
[2]
  ED50: inactive

## CCN1C(=O)OCC1Cc1cn(C)cn1 (stereo not given)
[1]
  EC50: 14 µM

## CCN1C(=O)OCC1Cc1cn(Cc2ccccc2)cn1 (stereo not given)
[1]
  ED50: inactive

## CCN1C(=O)OCC1Cc1c[nH]cn1 (stereo not given)
[1]
  EC50: 180 µM
